Here are results for 1 compound from article PMC5218480 (PLoS ONE, 2017).

In the assay the test system is MV-4-11 cells. Nature of the assay: Gene expression microarray analysis (Affymetrix PrimeView) and GSEA. Set-up: RFU PODN (11730768_x_at) / Fold change /veh PODN (11730768_x_at) / RFU LINC00158 (11744669_a_at) / Fold change /veh LINC00158 (11744669_a_at) / RFU DUSP10 (11751237_a_at) / Fold change /veh DUSP10 (11751237_a_at) / RFU ID3 (11757404_x_at) / Fold change /veh ID3 (11757404_x_at) / RFU PLEKHG5 (11737974_s_at) / Fold change /veh PLEKHG5 (11737974_s_at) / RFU LRRC4B (11730491_at) / Fold change /veh LRRC4B (11730491_at) / RFU GIMAP4 (11747438_a_at) / Fold change /veh GIMAP4 (11747438_a_at) / RFU KRT8 (11758183_x_at) / Fold change /veh KRT8 (11758183_x_at) / RFU CNN1 (11734310_a_at) / Fold change /veh CNN1 (11734310_a_at) / RFU VPS37D (11726825_at) / Fold change /veh VPS37D (11726825_at) / RFU C10orf10 (11716522_x_at) / Fold change /veh C10orf10 (11716522_x_at) / RFU KIR2DL2 /// KIR2DL4 /// KIR2DL5A /// KIR2DL5B /// KIR2DS1 /// KIR2DS2 /// KIR2DS3 /// KIR2DS4 /// KIR3DL3 /// KIR3DL3 /// KIR3DS1 (11738374_at) / Fold change /veh KIR2DL2 /// KIR2DL4 /// KIR2DL5A /// KIR2DL5B /// KIR2DS1 /// KIR2DS2 /// KIR2DS3 /// KIR2DS4 /// KIR3DL3 /// KIR3DL3 /// KIR3DS1 (11738374_at) / RFU C1QL1 (11718748_at) / Fold change /veh C1QL1 (11718748_at) / RFU TMPRSS4 (11747572_a_at) / Fold change /veh TMPRSS4 (11747572_a_at) / RFU HAMP (11756126_x_at) / Fold change /veh HAMP (11756126_x_at) / RFU RNFT2 (11725882_a_at) / Fold change /veh RNFT2 (11725882_a_at) / RFU NR4A2 (11747474_a_at) / Fold change /veh NR4A2 (11747474_a_at) / RFU ABCC12 (11746883_a_at) / Fold change /veh ABCC12 (11746883_a_at) / RFU TMEM136 (11760407_x_at) / Fold change /veh TMEM136 (11760407_x_at) / RFU CLDN22 /// WWC2 (11732394_at) / Fold change /veh CLDN22 /// WWC2 (11732394_at) / RFU HLA-DPB1 (11760878_x_at) / Fold change /veh HLA-DPB1 (11760878_x_at) / RFU SPINT1 (11716480_a_at) / Fold change /veh SPINT1 (11716480_a_at) / RFU GAP43 (11754022_s_at) / Fold change /veh GAP43 (11754022_s_at) / RFU A4GNT (11735810_at) / Fold change /veh A4GNT (11735810_at) / RFU PRB3 (11715151_x_at) / Fold change /veh PRB3 (11715151_x_at) / RFU TUBB4B (11761932_at) / Fold change /veh TUBB4B (11761932_at) / RFU CAPN14 (11732068_a_at) / Fold change /veh CAPN14 (11732068_a_at) / RFU TMCC2 (11721928_a_at) / Fold change /veh TMCC2 (11721928_a_at) / RFU IRGQ (11745062_a_at) / Fold change /veh IRGQ (11745062_a_at) / RFU FAM174B (11720279_a_at) / Fold change /veh FAM174B (11720279_a_at) / RFU TMPRSS4 (11748680_a_at) / Fold change /veh TMPRSS4 (11748680_a_at) / RFU FAM212B (11763350_a_at) / Fold change /veh FAM212B (11763350_a_at) / RFU PLEKHG5 (11743358_a_at) / Fold change /veh PLEKHG5 (11743358_a_at) / RFU ZSCAN30 (11745921_a_at) / Fold change /veh ZSCAN30 (11745921_a_at) / RFU CMKLR1 (11741424_a_at) / Fold change /veh CMKLR1 (11741424_a_at) / RFU LOC101060620 /// MAPK8IP1 (11723275_at) / Fold change /veh LOC101060620 /// MAPK8IP1 (11723275_at) / RFU SPTSSB (11747773_x_at) / Fold change /veh SPTSSB (11747773_x_at) / RFU PRSS12 (11739890_at) / Fold change /veh PRSS12 (11739890_at) / RFU BIN1 (11741810_x_at) / Fold change /veh BIN1 (11741810_x_at) / RFU WNT11 (11732464_a_at) / Fold change /veh WNT11 (11732464_a_at) / RFU C10orf10 (11716521_a_at) / Fold change /veh C10orf10 (11716521_a_at) / RFU C5orf56 (11738089_at) / Fold change /veh C5orf56 (11738089_at) / RFU CYB561 (11721691_x_at) / Fold change /veh CYB561 (11721691_x_at) / RFU ANKRD19P (11752326_a_at) / Fold change /veh ANKRD19P (11752326_a_at) / RFU OR2T12 /// OR2T33 /// OR2T8 (11738714_s_at) / Fold change /veh OR2T12 /// OR2T33 /// OR2T8 (11738714_s_at) / RFU VCAN (11748164_a_at) / Fold change /veh VCAN (11748164_a_at) / RFU JSRP1 (11732532_at) / Fold change /veh JSRP1 (11732532_at) / RFU KRTAP10-11 (11738290_x_at) / Fold change /veh KRTAP10-11 (11738290_x_at) / RFU MYO3A (11730013_a_at) / Fold change /veh MYO3A (11730013_a_at) / RFU EBF3 (11725865_a_at) / Fold change /veh EBF3 (11725865_a_at) / RFU CAMK2N1 (11719241_x_at) / Fold change /veh CAMK2N1 (11719241_x_at) / RFU C5orf56 (11738088_a_at) / Fold change /veh C5orf56 (11738088_a_at) / RFU OLFML3 (11715873_a_at) / Fold change /veh OLFML3 (11715873_a_at) / RFU LOC100653217 /// NTM (11731650_a_at) / Fold change /veh LOC100653217 /// NTM (11731650_a_at) / RFU MAPK11 (11762145_a_at) / Fold change /veh MAPK11 (11762145_a_at) / RFU FIZ1 (11724087_x_at) / Fold change /veh FIZ1 (11724087_x_at) / RFU OASL (11726364_x_at) / Fold change /veh OASL (11726364_x_at) / RFU SOX15 (11748057_x_at) / Fold change /veh SOX15 (11748057_x_at) / RFU CD79A (11719716_a_at) / Fold change /veh CD79A (11719716_a_at) / RFU HIST1H1D (11736915_at) / Fold change /veh HIST1H1D (11736915_at) / RFU CASKIN2 (11723855_a_at) / Fold change /veh CASKIN2 (11723855_a_at) / RFU LOC730098 (11760151_x_at) / Fold change /veh LOC730098 (11760151_x_at) / RFU OR4N2 (11742367_at) / Fold change /veh OR4N2 (11742367_at) / RFU PRRT2 (11749266_a_at) / Fold change /veh PRRT2 (11749266_a_at) / RFU SNX32 (11753110_a_at) / Fold change /veh SNX32 (11753110_a_at) / RFU CDHR5 (11726645_a_at) / Fold change /veh CDHR5 (11726645_a_at) / RFU RCAN1 (11760418_a_at) / Fold change /veh RCAN1 (11760418_a_at) / RFU FAM167A (11723789_a_at) / Fold change /veh FAM167A (11723789_a_at) / RFU FAM26E (11764081_at) / Fold change /veh FAM26E (11764081_at) / RFU ISYNA1 (11749810_s_at) / Fold change /veh ISYNA1 (11749810_s_at) / RFU ACY1 (11761880_at) / Fold change /veh ACY1 (11761880_at) / RFU 11764098_at / Fold change /veh 11764098_at / RFU SAMD14 (11745864_x_at) / Fold change /veh SAMD14 (11745864_x_at) / RFU NPB (11741838_a_at) / Fold change /veh NPB (11741838_a_at) / RFU TMPRSS6 (11731388_a_at) / Fold change /veh TMPRSS6 (11731388_a_at) / RFU KRTAP10-2 (11738614_at) / Fold change /veh KRTAP10-2 (11738614_at) / RFU ARHGAP8 /// PRR5-ARHGAP8 (11727945_x_at) / Fold change /veh ARHGAP8 /// PRR5-ARHGAP8 (11727945_x_at) / RFU KRTAP5-7 /// NADSYN1 (11734609_at) / Fold change /veh KRTAP5-7 /// NADSYN1 (11734609_at) / RFU RASL12 (11751679_a_at) / Fold change /veh RASL12 (11751679_a_at) / RFU CDKN2B (11736163_a_at) / Fold change /veh CDKN2B (11736163_a_at) / RFU PRF1 (11729649_at) / Fold change /veh PRF1 (11729649_at) / RFU, ZNF638 /// ZNF638-IT1 / Fold change vs veh, ZNF638 /// ZNF638-IT1 / RFU, PANK3 / Fold change vs veh, PANK3 / RFU, SH3YL1 / Fold change vs veh, SH3YL1 / RFU, ZEB2 / Fold change vs veh, ZEB2 / RFU, NRIP1 / Fold change vs veh, NRIP1 / RFU, PTTG1IP / Fold change vs veh, PTTG1IP / RFU, CAPN2 / Fold change vs veh, CAPN2 / RFU, MED14 / Fold change vs veh, MED14 / RFU, SNORA58 / Fold change vs veh, SNORA58 / RFU, C1orf63 / Fold change vs veh, C1orf63 / RFU, LRRFIP1 / Fold change vs veh, LRRFIP1 / RFU, NDUFAF7 / Fold change vs veh, NDUFAF7 / RFU, SLC12A2 / Fold change vs veh, SLC12A2 / RFU, IBTK / Fold change vs veh, IBTK / RFU, ESF1 / Fold change vs veh, ESF1 / Fold change vs veh, TMEM50B / RFU, TAOK1 / Fold change vs veh, TAOK1 / RFU, ACBD3 / Fold change vs veh, ACBD3 / RFU, TMA16 / Fold change vs veh, TMA16 / RFU, RWDD3 / Fold change vs veh, RWDD3 / RFU, BCAT1 / Fold change vs veh, BCAT1 / RFU, EDEM3 / Fold change vs veh, EDEM3 / RFU, TMEM33 / Fold change vs veh, TMEM33 / RFU, WDR75 / Fold change vs veh, WDR75 / RFU, AHCTF1 / Fold change vs veh, AHCTF1 / RFU, TFRC / Fold change vs veh, TFRC / RFU, ZDHHC17 / Fold change vs veh, ZDHHC17 / RFU, NOM1 / Fold change vs veh, NOM1 / RFU, ARL8B / Fold change vs veh, ARL8B / RFU, ZBTB11 / Fold change vs veh, ZBTB11 / RFU, TAMM41 / Fold change vs veh, TAMM41 / RFU, KIAA1704 /// LOC100996395 / Fold change vs veh, KIAA1704 /// LOC100996395 / RFU, ING1 / Fold change vs veh, ING1 / RFU, TRMT61B / Fold change vs veh, TRMT61B / RFU, FUBP3 / Fold change vs veh, FUBP3 / RFU, TP53 / Fold change vs veh, TP53 / RFU, TNKS2 / Fold change vs veh, TNKS2 / RFU, ZFP14 / Fold change vs veh, ZFP14 / RFU, ACTR2 / Fold change vs veh, ACTR2 / RFU, PPP3R1 / Fold change vs veh, PPP3R1 / RFU, PIK3R1 / Fold change vs veh, PIK3R1 / RFU, HNRNPA1 / Fold change vs veh, HNRNPA1 / RFU, RNF170 / Fold change vs veh, RNF170 / RFU, ZNF28 / Fold change vs veh, ZNF28 / RFU, RNGTT / Fold change vs veh, RNGTT / RFU, OGT / Fold change vs veh, OGT / RFU, BRD1 / Fold change vs veh, BRD1 / RFU, MARS / Fold change vs veh, MARS / RFU, ZNF655 / Fold change vs veh, ZNF655 / RFU, FAHD1 / Fold change vs veh, FAHD1 / RFU, BDP1 / Fold change vs veh, BDP1 / RFU, LRRCC1 / Fold change vs veh, LRRCC1 / RFU, ARID1A / Fold change vs veh, ARID1A / RFU, ZNF146 / Fold change vs veh, ZNF146 / RFU, ZNF330 / Fold change vs veh, ZNF330 / RFU, GPN3 / Fold change vs veh, GPN3 / RFU, C9orf123 / Fold change vs veh, C9orf123 / RFU, N4BP2L2 / Fold change vs veh, N4BP2L2 / RFU, ARFIP1 / Fold change vs veh, ARFIP1 / RFU, FAM179B / Fold change vs veh, FAM179B / RFU, BCL10 / Fold change vs veh, BCL10 / RFU, UHRF1BP1L / Fold change vs veh, UHRF1BP1L / RFU, BET1 / Fold change vs veh, BET1 / RFU, CNOT2 / Fold change vs veh, CNOT2 / RFU, ZNF268 / Fold change vs veh, ZNF268 / Fold change vs veh, ZNF507 / RFU, DGCR2 / Fold change vs veh, DGCR2 / RFU, WDSUB1 / Fold change vs veh, WDSUB1 / Fold change vs veh, HSP90B1 /// MIR3652 / RFU, ADSS / Fold change vs veh, ADSS / RFU, GK / Fold change vs veh, GK / RFU, ZNF148 / Fold change vs veh, ZNF148 / RFU, TAF9 / Fold change vs veh, TAF9 / RFU, SLC1A5 / Fold change vs veh, SLC1A5 / RFU, SLMO2 / Fold change vs veh, SLMO2 / RFU, ABCC4 / Fold change vs veh, ABCC4 / RFU, LOC101060439 /// RAP1B / Fold change vs veh, LOC101060439 /// RAP1B / RFU, RFX7 / Fold change vs veh, RFX7 / RFU, GTPBP10 / Fold change vs veh, GTPBP10 / RFU, CNEP1R1 / Fold change vs veh, CNEP1R1 / RFU, BIVM-ERCC5 /// ERCC5 / Fold change vs veh, BIVM-ERCC5 /// ERCC5 / RFU, ILF3 / Fold change vs veh, ILF3 / RFU 11762660_at / Fold change /veh 11762660_at / RFU VCAN (11757783_s_at) / Fold change /veh VCAN (11757783_s_at) / RFU DDX43 (11728927_at) / Fold change /veh DDX43 (11728927_at) / RFU KRT8 (11758188_x_at) / Fold change /veh KRT8 (11758188_x_at) / RFU NKD1 (11759106_at) / Fold change /veh NKD1 (11759106_at) / RFU SRD5A1 (11742802_a_at) / Fold change /veh SRD5A1 (11742802_a_at) / RFU TPSAB1 /// TPSB2 (11721975_s_at) / Fold change /veh TPSAB1 /// TPSB2 (11721975_s_at) / RFU GSTM3 (11746129_a_at) / Fold change /veh GSTM3 (11746129_a_at) / RFU IL23R (11737362_x_at) / Fold change /veh IL23R (11737362_x_at) / RFU TMEM51 (11727254_a_at) / Fold change /veh TMEM51 (11727254_a_at) / RFU PIWIL2 (11732686_x_at) / Fold change /veh PIWIL2 (11732686_x_at) / RFU ORM1 (11744905_x_at) / Fold change /veh ORM1 (11744905_x_at) / RFU CCDC152 (11743942_at) / Fold change /veh CCDC152 (11743942_at) / RFU ECM1 (11717891_a_at) / Fold change /veh ECM1 (11717891_a_at) / RFU IL23R (11748794_a_at) / Fold change /veh IL23R (11748794_a_at) / RFU TNFAIP8L3 (11732012_x_at) / Fold change /veh TNFAIP8L3 (11732012_x_at) / RFU MBOAT4 (11741988_at) / Fold change /veh MBOAT4 (11741988_at) / RFU 11764193_at / Fold change /veh 11764193_at / RFU TMEM53 (11763286_at) / Fold change /veh TMEM53 (11763286_at) / RFU MAGEB2 (11727129_at) / Fold change /veh MAGEB2 (11727129_at) / RFU TMEM200A (11744735_a_at) / Fold change /veh TMEM200A (11744735_a_at) / RFU CCDC152 (11751479_a_at) / Fold change /veh CCDC152 (11751479_a_at) / RFU FAM211A (11726209_a_at) / Fold change /veh FAM211A (11726209_a_at) / RFU RGS16 (11746705_a_at) / Fold change /veh RGS16 (11746705_a_at) / RFU VCAN (11755009_s_at) / Fold change /veh VCAN (11755009_s_at) / RFU RHOB (11743442_s_at) / Fold change /veh RHOB (11743442_s_at) / RFU RGS16 (11720943_a_at) / Fold change /veh RGS16 (11720943_a_at) / RFU RGS16 (11720944_at) / Fold change /veh RGS16 (11720944_at) / RFU, VPS4B / Fold change vs veh, VPS4B / RFU, CREB1 / Fold change vs veh, CREB1 / RFU, DNAJC13 / Fold change vs veh, DNAJC13 / RFU, GNAQ / Fold change vs veh, GNAQ / RFU, CDK5R1 / Fold change vs veh, CDK5R1 / RFU, ZRANB3 / Fold change vs veh, ZRANB3 / RFU, CUL4A / Fold change vs veh, CUL4A / RFU, CCNY / Fold change vs veh, CCNY / RFU, UFL1 / Fold change vs veh, UFL1 / RFU, COG3 / Fold change vs veh, COG3 / RFU, DIAPH2 / Fold change vs veh, DIAPH2 / RFU, SKA2 / Fold change vs veh, SKA2 / RFU, AFF3 / Fold change vs veh, AFF3 / RFU, LMF1 / Fold change vs veh, LMF1 / RFU, IPO11 / Fold change vs veh, IPO11 / RFU, DFFB / Fold change vs veh, DFFB / RFU, FOXP1 / Fold change vs veh, FOXP1 / RFU, CARD8 / Fold change vs veh, CARD8 / RFU, STRN3 / Fold change vs veh, STRN3 / RFU, ADK / Fold change vs veh, ADK / RFU, RASSF2 / Fold change vs veh, RASSF2 / RFU, WIPF1 / Fold change vs veh, WIPF1 / RFU, LARP1B / Fold change vs veh, LARP1B / RFU, RASA1 / Fold change vs veh, RASA1 / RFU, RB1 / Fold change vs veh, RB1 / RFU, PPFIA1 / Fold change vs veh, PPFIA1 / RFU, MAT2A / Fold change vs veh, MAT2A / RFU, CCT5 / Fold change vs veh, CCT5 / RFU, WDR92 / Fold change vs veh, WDR92 / RFU, CUX1 / Fold change vs veh, CUX1 / RFU, TTC7A / Fold change vs veh, TTC7A / RFU, TMEM135 / Fold change vs veh, TMEM135 / RFU, DEPTOR / Fold change vs veh, DEPTOR / RFU, CPM / Fold change vs veh, CPM / RFU, DNAJB6 / Fold change vs veh, DNAJB6 / RFU, CACNA2D3 / Fold change vs veh, CACNA2D3 / RFU, DTX4 / Fold change vs veh, DTX4 / RFU, TFCP2 / Fold change vs veh, TFCP2 / RFU, GMCL1 /// GMCL1P1 / Fold change vs veh, GMCL1 /// GMCL1P1 / RFU, AEBP2 / Fold change vs veh, AEBP2 / RFU, SNHG1 /// SNORD22 /// SNORD25 /// SNORD26 /// SNORD27 /// SNORD28 /// SNORD29 /// SNORD31 / Fold change vs veh, SNHG1 /// SNORD22 /// SNORD25 /// SNORD26 /// SNORD27 /// SNORD28 /// SNORD29 /// SNORD31 / Fold change (Aza/veh), C12orf56 (ProbeSet 11735607_a_at) / Fold change (ACY-1035/veh), C12orf56 (ProbeSet 11735607_a_at) / Fold change (Aza/veh), FGFR1OP (ProbeSet 11751329_s_at) / Fold change (ACY-1035/veh), FGFR1OP (ProbeSet 11751329_s_at) / Fold change (Aza/veh), VPS36 (ProbeSet 11739960_a_at) / Fold change (ACY-1035/veh), VPS36 (ProbeSet 11739960_a_at) / RFU SYPL1 (11715823_x_at) / Fold change /veh SYPL1 (11715823_x_at) / RFU IGFBP7 (11715501_s_at) / Fold change /veh IGFBP7 (11715501_s_at) / RFU REEP3 (11722064_at) / Fold change /veh REEP3 (11722064_at) / RFU IGLL1 (11728026_x_at) / Fold change /veh IGLL1 (11728026_x_at): dose or concentration left out as unconfirmed. The conditions noted are these: MV-4-11 cells, 48 hours. Format: cell-based, human.

For `Nc1ccc(-c2cccs2)cc1NC(=O)c1ccc2c(c1)cc(C1CC1)n2CCN1CCOCC1` [ACY-1035], the “Fold change /veh ECM1 (11717891_a_at)” value was 0.95.
